Reference: patent publication US20250041286A1, “CANCER TREATMENT USING KETOTIFEN IN COMBINATION WITH A CHECKPOINT INHIBITOR” (Materia Therapeutics Inc., priority 2021, published 2025)
“Also recorded” adds a separate entry of the source.

Key:
Type in all cases: in vivo, mouse
MCA205 tumors [1] = assay: Flow cytometry of tumor-infiltrating lymphocytes and myeloid cells; details: CD11b / Gr-1 flow cytometry
Method: On day 16 of the doxorubicin-anti-PD-L1 combination study (e.g., the study outlined in FIG. 8A), MCA205 tumors were harvested in 1×HBSS (Biosera), minced to fine fragments, and incubated with 1 mg/mL Collagenase D and 0.5 mg/ml DNase I (Roche) in a 37° C. shaker for 30 minutes. Enzymatic digestion was ceased by the addition of RPMI media containing 10% FBS and 1% antibiotic/antimycotic solution. The tissue homogenates were then filtered through 40 μm cell strainers. Red blood cells were removed by ACK Lysing buffer (A1049201, Gibco) and single cell suspensions were collected and used to a final concentration 1×10^6 cells per sample. Cells were then incubated with fixable viability dye (eBioscience, 1:1000) for 10 minutes on ice for gating of viable cells. Non-specific antibody binding was blocked following incubation with the rat anti-mouse CD16/CD32 mAb (BD Bioscience) for 20 minutes on ice. […]
Foxp3-AF488 (BD Bioscience) staining was performed following fixation and permeabilization process using the Foxp3/Transcription Factor Staining Buffer Set (00-5523-00, eBioscience). […] Flow cytometry data were obtained using BD FACSLyric flow cytometer and analyzed using BD FACSuite™ Software. […]

MCA205 tumors [2] = assay: qPCR mRNA expression levels in tumors; details: 10 mg/kg ketotifen
Method: Total RNA was isolated from breast tumors according to the standard Trizol-based protocol (Invitrogen), and cDNA synthesis was performed using reverse transcriptase III (RT-III) enzyme and random hexamers (Invitrogen). Real-time polymerase chain reaction was performed using Sybr Fast Universal Master Mix (KAPA). Reactions were performed using a CFX-96 real-time PCR detection system (BioRad) at the following conditions: 95° C. for 2 minutes, 95° C. for 2 seconds, 60° C. for 20 seconds, 60° C. for 1 second, steps 2-4 for 39 cycles. Real-time PCR analysis and calculation of changes in gene expression between compared groups was performed using the ΔΔ^Ct method. Relative gene expression was normalized based on the expression of β-actin. For qPCR analysis, 3-5 biological samples were used per treatment and 3 technical replicates for each sample.
mRNA expression levels were evaluated in both mouse sarcoma models by qPCR, as described above.
RT-qPCR, as described above, […].

tumors = assay: Interstitial fluid pressure, wick-in-needle technique
Method: Interstitial fluid pressure (IFP) was measured in vivo using the “wick-in-needle” technique after mice were anesthetized with i.p. injection of Avertin and prior to tumor excision. Additional information regarding the wick-in-needle technique is described in Dong et al., Involvement of mast cell chymase in burn wound healing in hamsters 2013; 5:643-7 and Shankaran et al. IFNγ and lymphocytes prevent primary tumour development and shape tumour immunogenicity 2001; 410:1107-11, the contents of which are incorporated herein by reference in their entirety.

K7M2wt tumors = assay: Proliferation of CAFs, α-SMA / Ki-67 immunostaining; details: 10 mg/kg ketotifen
Method: (§1) Proliferation of CAFs was evaluated by immunostaining for the presence of alpha-smooth muscle actin (α-SMA) (ab5694, Abcam; diluted 1:50) protein and Ki-67 (Abcam; diluted 1:200) proliferation marker following antigen retrieval, 1 hour incubation in serum solution (10% FBS, 3% donkey serum in 1×PBS), and 1 hour incubation in blocking solution for endogenous mouse IgG (Abcam; diluted 1:100). Following washes with TBS-T (0.25% Tween-20), Alexa Fluor-647 anti-rabbit IgG (H+L) (Invitrogen; diluted 1:400) and Fluor-488 anti-rat IgG (H+L) (Invitrogen; diluted 1:400) secondary antibodies and DAPR (Sigma diluted 1:100 of 1 mg/mL stock) were applied for 1 hour at room temperature. Sections were then mounted on microscope slides using the ProLong gold antifade mountant (Invitrogen) and covered with a glass coverslip. CAF proliferation fraction was detected as the ratio of overlapping α-SMA (green) and Ki67 (red) positive signal to total CAF signal (α-SMA^+), indicating CAFs.

MCA205 tumors [3] = assay: as above; details: 10 mg/kg ketotifen
Method: as §1

MCA205 tumors [4] = assay: Hypoxia study, pimonidazole adduct immunofluorescence
Method: Mice bearing orthotopic MCA205 or K7M2wt sarcoma tumors were injected (intraperitoneal) with 60 mg/kg of pimonidazole HCl at 2 hours prior to tumor removal. Tumors were removed, washed twice in 1×PBS for 10 minutes and incubated with 4% PFA overnight at 4° C. The fixative was aspirated, and samples were washed twice in 1×PBS for 10 min. Tissue samples were dehydrated in successive ethanol steps and xylene followed by paraffin embedding. Serial sections ([…]) of paraffin-embedded tissues were produced using the microtome (Accu-Cut SRM 200 Rotary Microtome, SAKURA), flattened out into water, and allowed to dry overnight at 37° C. Sections were then deparaffinized and rehydrated as routinely processed for histology. Slides were microwaved in TriSodium Citrate, blocked in serum solution, and incubated with mouse anti-pimonidazole RED 549 conjugate antibody (HP7-100Kit, 1:100) overnight at 4° C. The next day slides were washed, nuclei were stained with DAPI, and tissue sections were mounted. Immunofluorescence images of the slides were taken (FIG. 1A), and hypoxic area fraction across different treatment groups was normalized to DAPI staining.

CN1CCC(=C2c3ccccc3CC(=O)c3sccc32)CC1 [ketotifen]
recruitment of immunosuppressive cell populations (MDSCs) (MCA205 tumors [1]): reducing the recruitment of immunosuppressive cell populations; also recorded: decreasing the polarization of immature myeloid cell population into MDSCs | mRNA expression of ICAM (MCA205 tumors [2]): increased | mRNA expression of P-selectin (P-sel) (MCA205 tumors [2]): increased | mRNA levels of IFN-γ (MCA205 tumors [2]): upregulated; also recorded: upregulation | mRNA levels of VEGF (MCA205 tumors [2]): without affecting; also recorded: a reduction in VEGF transcripts was not observed | mRNA levels of collagen I encoding gene (Col1A1) (MCA205 tumors [2]): reduced the mRNA levels of collagen I encoding gene (Col1A1) and connective tissue growth factor (CTGR), although not to a statistically significant extent | mRNA levels of connective tissue growth factor (CTGR) (MCA205 tumors [2]): reduced the mRNA levels of collagen I encoding gene (Col1A1) and connective tissue growth factor (CTGR), although not to a statistically significant extent | mRNA levels of hyaluronan synthase 2 (Has2) (MCA205 tumors [2]): no effect | mRNA levels of hyaluronan synthase 3 (Has3) (MCA205 tumors [2]): no effect | interstitial fluid pressure (IFP) (tumors; 10 mg/kg dose compared with the other doses): greatest effect | interstitial fluid pressure (IFP) (tumors; all doses of ketotifen, daily for 7 days): reduces; also recorded: reduction in IFP levels | CAF levels and proliferation activity (α-SMA, Ki-67) (K7M2wt tumors): decrease | CAF levels and proliferation activity (α-SMA, Ki-67) (MCA205 tumors [3]): decrease | pimonidazole positive fraction (hypoxia) (MCA205 tumors [4]; 1 mg/kg, 5 mg/kg and 25 mg/kg ketotifen): prominent | pimonidazole positive fraction (hypoxia) (MCA205 tumors [4]; 10 mg/kg ketotifen, MCA205): significantly reduced; also recorded: alleviated hypoxia
